{"source": "patent US9821002B2", "about": "“Method for alleviating radiation injury with isorhamnetin-3-O-β-D-glucoside” (Sinotai Oncology Associate., Ltd., priority 2015, dated 2017)", "key": {"[1]": {"tested_on": "cleaved caspase-9 in BNL CL.2 cells", "test": "Expression profile of cleaved caspase-9 (Western Blotting) after X-ray irradiation", "assay_type": "cell-based, mouse", "settings": "5 and 30 μM, 2 h pretreatment, X-ray 15 Gy, 48 hours, normalized to β-actin", "from_the_text": "(§1) Four groups of BNL CL.2 cells (i.e., a normal control group referred to as Normal Control Group 1-A, an X-ray control group referred to as X-Ray Control Group 1-A, and two experimental groups referred to as Experimental Groups 1-A to 2-A), and six groups of NMuMG cells (i.e., a normal control group referred to as Normal Control Group 1-B, an X-ray control group referred to as X-Ray Control Group 1-B, two isorhamnetin groups referred to as Isorhamnetin Groups 1 to 2, and two experimental groups referred to as Experimental Groups 1-B to 2-B), were prepared based on the procedure set forth in “Source and cultivation of cell lines” of “Experimental materials”. BNL CL.2 cells in each group were cultivated using 5 mL of a corresponding medium shown in Table 1 and a 6-cm Petri dish in an amount of 2×10^5 cells per dish. […]\n(§2) Subsequently, the culture in each group was cultivated in an incubator (37° C., 5% CO2) for 48 hours, and 120 μL of lysis buffer containing CelLytic™ M protein extraction reagent (Sigma-Aldrich) and proteinase inhibitor cocktail (Sigma-Aldrich) was added to the culture in each group, followed by mixing evenly. […] Protein concentration in the total protein sample was determined by means of the Bio-Rad Protein Assay Kit. […]\n(§3) Subsequently, ImageScanner Imaging Software was used for analysis, such that the corresponding protein expression level was semi-quantitatively calculated. […]"}, "[2]": {"tested_on": "cleaved caspase-9 in NMuMG cells", "test": "Expression profile of cleaved caspase-9 (Western Blotting) after X-ray irradiation", "assay_type": "cell-based, mouse", "settings": "15 and 30 μM, 2 h pretreatment, X-ray 15 Gy, 48 hours, normalized to β-actin", "from_the_text": "as §1, §2, §3"}}, "data": [{"smiles": "COc1cc(-c2oc3cc(O)cc(O)c3c(=O)c2O[C@@H]2O[C@H](CO)[C@@H](O)[C@H](O)[C@H]2O)ccc1O", "note": "[isorhamnetin-3-O-β-D-glucoside]", "values": [{"measurement": "expression level of cleaved caspase-9 versus X-ray control group", "setting": "[1]", "value": "significant reduction in expression level of cleaved caspase-9"}, {"measurement": "expression level of cleaved caspase-9 versus X-ray control group", "setting": "[2]", "value": "significant reduction in expression level of cleaved caspase-9"}]}]}
